Source: PubChem BioAssay (NCI)
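Cells were grown in 96-well plates and exposed to each compound for 48 hours at five concentrations; endpoints were interpolated linearly between bracketing concentrations, or set to the highest concentration if not reached. TGI denotes the concentration required for complete inhibition of growth.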

Tests used:
Experiment in all cases: growth of human tumour cells (NCI), 48 h
[1] = tested on: RPMI-8226 leukemia
[2] = tested on: MDA-N
[3] = tested on: SF-295 CNS
[4] = tested on: HL-60(TB) leukemia
[5] = tested on: UACC-62 melanoma
[6] = tested on: BT-549 breast
[7] = tested on: MDA-MB-435
[8] = tested on: DU-145 prostate
[9] = tested on: NCI-H522 lung
[10] = tested on: SNB-19 CNS
[11] = tested on: IGROV1 ovarian
[12] = tested on: SK-MEL-5 melanoma
[13] = tested on: HT29 colon
[14] = tested on: 786-0 renal
[15] = tested on: HCC-2998 colon
[16] = tested on: HCT-15 colon
[17] = tested on: T-47D breast
[18] = tested on: SNB-75 CNS
[19] = tested on: SK-OV-3 ovarian
[20] = tested on: NCI-H23 lung
[21] = tested on: RXF 393 renal
[22] = tested on: MALME-3M melanoma
[23] = tested on: UACC-257 melanoma
[24] = tested on: HS 578T breast
[25] = tested on: EKVX NSCLC
[26] = tested on: KM12 colon
[27] = tested on: A498 renal
[28] = tested on: SR leukemia
[29] = tested on: OVCAR-5 ovarian
[30] = tested on: ACHN renal
[31] = tested on: LOX IMVI melanoma
[32] = tested on: K-562 leukemia
[33] = tested on: MDA-MB-231 breast
[34] = tested on: OVCAR-8 ovarian
[35] = tested on: NCI-H226 lung
[36] = tested on: SW-620 colon
[37] = tested on: SF-268 CNS
[38] = tested on: OVCAR-3 ovarian
[39] = tested on: SK-MEL-28 melanoma
[40] = tested on: UO-31 renal
[41] = tested on: U251 CNS
[42] = tested on: SN12C renal
[43] = tested on: HOP-92 NSCLC
[44] = tested on: PC-3 prostate
[45] = tested on: CCRF-CEM leukemia
[46] = tested on: OVCAR-4 ovarian
[47] = tested on: HCT-116 colon
[48] = tested on: M14 melanoma
[49] = tested on: SK-MEL-2 melanoma
[50] = tested on: SF-539 CNS
[51] = tested on: HOP-62 NSCLC
[52] = tested on: A549 NSCLC
[53] = tested on: MCF7 breast
[54] = tested on: NCI-H460 lung
[55] = tested on: CAKI-1 renal
[56] = tested on: MOLT-4 leukemia
[57] = tested on: NCI/ADR-RES ovarian
[58] = tested on: TK-10 renal
[59] = tested on: COLO 205 colon

Cn1ccnc1Sc1ccc(/C=N/NC(=O)c2ccccc2[N+](=O)[O-])cc1[N+](=O)[O-]
TGI [1]: > 100 µM
TGI [2]: > 100 µM
TGI [3]: > 100 µM
TGI [4]: > 100 µM
TGI [5]: > 100 µM
TGI [6]: > 100 µM
TGI [7]: > 100 µM
TGI [8]: > 100 µM
TGI [9]: > 100 µM
TGI [10]: > 100 µM
TGI [11]: > 100 µM
TGI [12]: > 100 µM
TGI [13]: > 100 µM
TGI [14]: > 100 µM
TGI [15]: 95.6 µM
TGI [16]: > 100 µM
TGI [17]: > 100 µM
TGI [18]: > 100 µM
TGI [19]: > 100 µM
TGI [20]: > 100 µM
TGI [21]: > 100 µM
TGI [22]: > 100 µM
TGI [23]: > 100 µM
TGI [24]: > 100 µM
TGI [25]: > 100 µM
TGI [26]: > 100 µM
TGI [27]: > 100 µM
TGI [28]: > 100 µM
TGI [29]: > 100 µM
TGI [30]: > 100 µM
TGI [31]: > 100 µM
TGI [32]: > 100 µM
TGI [33]: 97.6 µM
TGI [34]: > 100 µM
TGI [35]: > 100 µM
TGI [36]: > 100 µM
TGI [37]: > 100 µM
TGI [38]: > 100 µM
TGI [39]: > 100 µM
TGI [40]: > 100 µM
TGI [41]: > 100 µM
TGI [42]: > 100 µM
TGI [43]: > 100 µM
TGI [44]: > 100 µM
TGI [45]: > 100 µM
TGI [46]: > 100 µM
TGI [47]: > 100 µM
TGI [48]: > 100 µM
TGI [49]: > 100 µM
TGI [50]: > 100 µM
TGI [51]: > 100 µM
TGI [52]: > 100 µM
TGI [53]: > 100 µM
TGI [54]: > 100 µM
TGI [55]: > 100 µM
TGI [56]: > 100 µM
TGI [57]: > 100 µM
TGI [58]: > 100 µM
TGI [59]: > 100 µM

c1cc(-c2ccsc2-c2ccsc2)cs1
TGI [1]: > 100 µM
TGI [2]: > 72.5 µM
TGI [3]: > 100 µM
TGI [4]: > 100 µM
TGI [5]: > 100 µM
TGI [6]: > 100 µM
TGI [7]: > 82.9 µM
TGI [8]: > 100 µM
TGI [9]: > 100 µM
TGI [10]: > 100 µM
TGI [11]: > 100 µM
TGI [12]: > 100 µM
TGI [13]: > 100 µM
TGI [14]: > 100 µM
TGI [15]: > 100 µM
TGI [16]: > 100 µM
TGI [17]: > 100 µM
TGI [18]: > 100 µM
TGI [19]: > 100 µM
TGI [20]: > 100 µM
TGI [21]: > 85.5 µM
TGI [22]: > 100 µM
TGI [23]: > 100 µM
TGI [24]: > 100 µM
TGI [25]: > 100 µM
TGI [26]: 99.7 µM
TGI [27]: > 100 µM
TGI [28]: > 74.9 µM
TGI [29]: > 100 µM
TGI [30]: > 100 µM
TGI [31]: > 100 µM
TGI [32]: > 100 µM
TGI [33]: > 100 µM
TGI [34]: > 100 µM
TGI [35]: > 71.7 µM
TGI [36]: > 100 µM
TGI [37]: > 100 µM
TGI [38]: > 100 µM
TGI [39]: > 100 µM
TGI [40]: > 100 µM
TGI [41]: > 100 µM
TGI [42]: > 100 µM
TGI [43]: > 100 µM
TGI [44]: > 100 µM
TGI [45]: > 100 µM
TGI [46]: > 100 µM
TGI [47]: > 100 µM
TGI [48]: > 100 µM
TGI [49]: > 59.1 µM
TGI [50]: > 100 µM
TGI [51]: > 100 µM
TGI [52]: > 100 µM
TGI [53]: > 100 µM
TGI [54]: > 100 µM
TGI [55]: > 100 µM
TGI [56]: > 89 µM
TGI [57]: > 100 µM
TGI [58]: > 100 µM
TGI [59]: > 100 µM

CC(C)[Si]1(C(C)C)OCC2OC(N3C(=O)NC(=O)C[C@@H]3C(O)c3ccccc3)CC2O[Si](C(C)C)(C(C)C)O1 (stereo partly specified)
TGI [1]: 12.2 µM
TGI [2]: 9.61 µM
TGI [3]: 9.97 µM
TGI [4]: 21.6 µM
TGI [5]: 22.4 µM
TGI [6]: 33.4 µM
TGI [7]: 18.2 µM
TGI [8]: 26.5 µM
TGI [9]: 7.77 µM
TGI [10]: 25.4 µM
TGI [11]: 17.6 µM
TGI [12]: 26.3 µM
TGI [13]: 6.59 µM
TGI [14]: 12.5 µM
TGI [15]: 4.46 µM
TGI [16]: 18.1 µM
TGI [17]: 14.7 µM
TGI [18]: 17.6 µM
TGI [19]: 11.8 µM
TGI [20]: 21.6 µM
TGI [21]: 13.4 µM
TGI [22]: 12.8 µM
TGI [23]: 16.5 µM
TGI [24]: 8.71 µM
TGI [25]: 23.4 µM
TGI [26]: 7.1 µM
TGI [27]: 17.7 µM
TGI [28]: > 19.8 µM
TGI [29]: 27.6 µM
TGI [30]: 19.7 µM
TGI [31]: 10.7 µM
TGI [32]: > 30.2 µM
TGI [33]: 12.1 µM
TGI [34]: 17.3 µM
TGI [35]: 8.9 µM
TGI [36]: 9 µM
TGI [37]: 10.6 µM
TGI [38]: 11.4 µM
TGI [39]: 12.9 µM
TGI [40]: 24.8 µM
TGI [41]: 9.06 µM
TGI [42]: 12.2 µM
TGI [43]: 20.4 µM
TGI [44]: 15.3 µM
TGI [45]: 8.46 µM
TGI [46]: 14.8 µM
TGI [47]: 9.79 µM
TGI [48]: 30.1 µM
TGI [49]: 27.3 µM
TGI [50]: 32.4 µM
TGI [51]: 27.5 µM
TGI [52]: 24.1 µM
TGI [53]: 15.2 µM
TGI [54]: 34.3 µM
TGI [55]: 30.7 µM
TGI [56]: 9.31 µM
TGI [57]: 13.4 µM
TGI [58]: 24 µM
TGI [59]: 25.8 µM

COC(=O)c1cc2c3c(c1)Oc1cc(C(=O)OC)cc4c1C3c1c(cc(C(=O)OC)cc1O4)O2
TGI [1]: > 100 µM
TGI [2]: > 100 µM
TGI [3]: 26.4 µM
TGI [4]: > 29.3 µM
TGI [5]: > 75.5 µM
TGI [6]: > 100 µM
TGI [7]: > 100 µM
TGI [8]: > 41.3 µM
TGI [9]: 15.5 µM
TGI [10]: > 62.9 µM
TGI [11]: 26.5 µM
TGI [12]: 14.3 µM
TGI [13]: 38.3 µM
TGI [14]: 23 µM
TGI [15]: > 100 µM
TGI [16]: > 100 µM
TGI [17]: > 100 µM
TGI [18]: 20 µM
TGI [19]: 42.4 µM
TGI [20]: > 72 µM
TGI [21]: 16.5 µM
TGI [22]: 37.2 µM
TGI [23]: > 100 µM
TGI [24]: 41.1 µM
TGI [25]: 46.4 µM
TGI [26]: > 49.7 µM
TGI [27]: > 94.6 µM
TGI [28]: > 100 µM
TGI [29]: > 66.1 µM
TGI [30]: 26.2 µM
TGI [31]: > 46.1 µM
TGI [32]: > 100 µM
TGI [33]: > 100 µM
TGI [34]: 17.1 µM
TGI [35]: 13.6 µM
TGI [36]: > 100 µM
TGI [37]: 30 µM
TGI [38]: 33 µM
TGI [39]: > 100 µM
TGI [40]: > 100 µM
TGI [41]: 41.8 µM
TGI [42]: > 100 µM
TGI [43]: > 31.6 µM
TGI [44]: > 53.6 µM
TGI [45]: 96.9 µM
TGI [46]: > 100 µM
TGI [47]: > 100 µM
TGI [48]: > 95.7 µM
TGI [49]: > 100 µM
TGI [50]: 33 µM
TGI [51]: 23.5 µM
TGI [52]: > 48.3 µM
TGI [53]: > 56.3 µM
TGI [54]: > 100 µM
TGI [55]: 27.8 µM
TGI [56]: > 100 µM
TGI [57]: 13 µM
TGI [58]: > 56.9 µM
TGI [59]: > 91.5 µM
